Experimental data: ChEMBL document CHEMBL4138244, “Structure-based identification of a NEDD8-activating enzyme inhibitor via drug repurposing” (Eur J Med Chem, 2018)
Activity calls are given as the source filed them. The calls are words filed in the database; no cut-off is given here.

Legend:
[1] = target: T1, NEDD8 activating enzyme (Homo sapiens) (UniProt Q8TBC4+Q13564); experiment: Inhibition of NAE in human Caco2 cells assessed as increase in p53 protein levels at 1 to 10 uM after 16 hrs by Western blot analysis; format: cell-based
[2] = target: T1, NEDD8 activating enzyme (Homo sapiens); experiment: Inhibition of NAE-mediated Ubcl2-NEDD8 conjugation in human Caco2 cells at 10 uM after 16 hrs by Western blot analysis; format: cell-based
[3] = target: T1, NEDD8 activating enzyme (Homo sapiens); experiment: (§1) Inhibition of NAE-mediated Ubcl2-NEDD8 conjugation in human Caco2 cells after 16 hrs by Western blot analysis; format: cell-based
NEDD8 activating enzyme = target: T2, NEDD8 activating enzyme (Homo sapiens, UniProt Q8TBC4); experiment: as §1; format: cell-based
T2 sequence (Q8TBC4 whole entry): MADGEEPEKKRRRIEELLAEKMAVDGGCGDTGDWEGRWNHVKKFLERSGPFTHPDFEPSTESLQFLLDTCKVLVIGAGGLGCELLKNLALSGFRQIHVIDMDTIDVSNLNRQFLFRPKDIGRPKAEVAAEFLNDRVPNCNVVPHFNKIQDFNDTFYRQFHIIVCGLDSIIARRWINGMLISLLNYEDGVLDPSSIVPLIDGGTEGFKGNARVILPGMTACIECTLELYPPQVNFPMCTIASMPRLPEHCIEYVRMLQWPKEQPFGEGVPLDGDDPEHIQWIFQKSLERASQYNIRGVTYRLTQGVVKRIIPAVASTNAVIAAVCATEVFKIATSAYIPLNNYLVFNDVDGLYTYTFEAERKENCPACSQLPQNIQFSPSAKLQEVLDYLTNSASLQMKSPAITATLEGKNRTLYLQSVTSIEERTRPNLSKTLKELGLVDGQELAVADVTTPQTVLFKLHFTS
T2 sequence (Q13564 whole entry): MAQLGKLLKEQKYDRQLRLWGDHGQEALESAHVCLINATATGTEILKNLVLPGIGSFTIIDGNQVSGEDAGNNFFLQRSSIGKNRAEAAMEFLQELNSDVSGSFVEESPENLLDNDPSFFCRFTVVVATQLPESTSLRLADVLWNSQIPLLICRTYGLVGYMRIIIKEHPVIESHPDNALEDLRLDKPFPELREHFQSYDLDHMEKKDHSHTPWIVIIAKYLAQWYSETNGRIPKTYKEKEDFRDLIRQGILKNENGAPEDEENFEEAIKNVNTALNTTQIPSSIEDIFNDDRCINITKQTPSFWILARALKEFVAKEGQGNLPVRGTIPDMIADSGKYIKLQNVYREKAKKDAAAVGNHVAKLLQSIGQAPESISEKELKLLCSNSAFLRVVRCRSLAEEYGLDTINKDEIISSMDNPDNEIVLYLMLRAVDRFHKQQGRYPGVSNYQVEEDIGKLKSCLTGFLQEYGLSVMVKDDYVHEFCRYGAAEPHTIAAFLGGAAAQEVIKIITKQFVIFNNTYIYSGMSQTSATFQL

[4] = target: T1, NEDD8 activating enzyme (Homo sapiens); experiment: Inhibition of NAE (unknown origin) assessed as decrease in NAE-mediated Ubc12-NEDD8 conjugation levels preincubated for 10 mins followed by ATP and Mg2+ addition measured after 60 mins by Western blot analysis; format: protein-complex assay
[5] = target: T3, SUMO-activating enzyme (Homo sapiens) (UniProt Q9UBE0+Q9UBT2); experiment: Inhibition of SAE (unknown origin) assessed as decrease in SAE-mediated Ubc9-SUMO conjugation levels up to 10 uM preincubated for 10 mins followed by ATP and Mg2+ addition measured after 60 mins by Western blot analysis; format: protein-complex assay
[6] = target: T4, Ubiquitin-like modifier-activating enzyme 1 (Homo sapiens) (UniProt P22314); experiment: Inhibition of UAE1 (unknown origin) assessed as decrease in UAE1-mediated Ubc10-ubiquitin conjugation levels up to 10 uM preincubated for 10 mins followed by ATP and Mg2+ addition measured after 60 mins by Western blot analysis
T4 sequence (whole entry): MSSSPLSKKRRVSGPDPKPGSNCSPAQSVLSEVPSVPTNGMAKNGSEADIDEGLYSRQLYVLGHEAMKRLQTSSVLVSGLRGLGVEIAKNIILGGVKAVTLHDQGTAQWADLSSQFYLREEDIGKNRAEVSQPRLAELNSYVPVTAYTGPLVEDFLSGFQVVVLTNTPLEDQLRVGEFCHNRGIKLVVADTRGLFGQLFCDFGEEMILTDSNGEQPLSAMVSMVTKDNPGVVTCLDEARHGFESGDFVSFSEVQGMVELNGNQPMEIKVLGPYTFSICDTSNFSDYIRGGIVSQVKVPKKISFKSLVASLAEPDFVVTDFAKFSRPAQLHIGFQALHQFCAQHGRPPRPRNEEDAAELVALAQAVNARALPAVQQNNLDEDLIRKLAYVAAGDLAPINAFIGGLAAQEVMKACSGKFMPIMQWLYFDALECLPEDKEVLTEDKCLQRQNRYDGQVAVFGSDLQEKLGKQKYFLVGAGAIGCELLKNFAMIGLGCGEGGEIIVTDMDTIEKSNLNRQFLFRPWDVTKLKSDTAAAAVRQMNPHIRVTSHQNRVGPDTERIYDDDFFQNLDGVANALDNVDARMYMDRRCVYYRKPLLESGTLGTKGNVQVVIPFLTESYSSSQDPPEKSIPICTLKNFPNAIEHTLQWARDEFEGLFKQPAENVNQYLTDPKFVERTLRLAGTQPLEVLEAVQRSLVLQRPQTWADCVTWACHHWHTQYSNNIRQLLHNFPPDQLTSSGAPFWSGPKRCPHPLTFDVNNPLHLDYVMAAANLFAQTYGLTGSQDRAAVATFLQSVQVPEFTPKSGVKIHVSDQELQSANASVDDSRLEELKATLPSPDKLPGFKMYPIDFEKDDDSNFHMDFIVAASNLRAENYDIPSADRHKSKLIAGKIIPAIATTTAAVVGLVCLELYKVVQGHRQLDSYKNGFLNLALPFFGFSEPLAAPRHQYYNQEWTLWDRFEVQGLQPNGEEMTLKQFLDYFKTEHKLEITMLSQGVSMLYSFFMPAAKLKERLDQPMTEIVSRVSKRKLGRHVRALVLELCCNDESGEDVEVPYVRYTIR

[7] = target: T1, NEDD8 activating enzyme (Homo sapiens); experiment: Competitive inhibition of NAE (unknown origin) assessed as decrease in NAE-mediated Ubc12-NEDD8 conjugation levels at 10 uM preincubated for 10 mins followed by Mg2+ and various concentrations of ATP addition measured after 60 mins by Lineweaver-Burk plot analysis; format: protein-complex assay
[8] = target: T1, NEDD8 activating enzyme (Homo sapiens); experiment: Inhibition of NAE (unknown origin) assessed as decrease in NAE-mediated Ubc12-NEDD8 conjugation levels at 10 uM treated for 10 mins post ATP and Mg2+ addition measured after 60 mins by Western blot analysis; format: protein-complex assay
[9] = target: T1, NEDD8 activating enzyme (Homo sapiens); experiment: Inhibition of NAE in human Caco2 cells assessed as increase in p53 protein levels at 0.1 to 10 uM after 16 hrs by Western blot analysis; format: cell-based
Caco-2 [10] = experiment: Upregulation of p53 protein levels in NAE knockdown human Caco2 cells at 10 uM after 16 hrs by Western blot analysis; format: functional, cell-based
[11] = target: T1, NEDD8 activating enzyme (Homo sapiens); experiment: Inhibition of NAE in human Caco2 cells assessed as increase in p53 protein levels by measuring p53 degradation at 10 uM preincubated for 16 hrs followed by cycloheximide addition measured up to 60 mins by Western blot analysis relative to control; format: cell-based; set-up: scale not given: the % may be the effect or the level left
[12] = target: T1, NEDD8 activating enzyme (Homo sapiens); experiment: Inhibition of NAE in human Caco2 cells harboring p53-luc plasmid assessed as increase in p53 transcriptional activity after 16 hrs by luciferase reporter gene assay; format: cell-based
[13] = target: T1, NEDD8 activating enzyme (Homo sapiens); experiment: Inhibition of NAE in human Caco2 cells assessed as increase in beta-catenin protein levels after 16 hrs by Western blot analysis; format: cell-based
[14] = target: T1, NEDD8 activating enzyme (Homo sapiens); experiment: Inhibition of NAE in human Caco2 cells assessed as increase in c-myc protein levels after 16 hrs by Western blot analysis; format: cell-based
[15] = target: T1, NEDD8 activating enzyme (Homo sapiens); experiment: Inhibition of NAE in human Caco2 cells assessed as increase in p27 protein levels at 0.1 to 10 uM after 16 hrs by Western blot analysis; format: cell-based
[16] = target: T1, NEDD8 activating enzyme (Homo sapiens); experiment: Inhibition of NAE in human Caco2 cells assessed as decrease in cyclin D1 protein levels at 0.1 to 10 uM after 16 hrs by Western blot analysis; format: cell-based
[17] = target: T1, NEDD8 activating enzyme (Homo sapiens); experiment: Inhibition of NAE in human Caco2 cells assessed as decrease in Bcl2 protein levels at 0.1 to 10 uM after 16 hrs by Western blot analysis; format: cell-based
[18] = target: T1, NEDD8 activating enzyme (Homo sapiens); experiment: Inhibition of NAE in human Caco2 cells assessed as increase in phosphorylated NF-kappaB protein levels at 0.1 to 10 uM after 16 hrs by Western blot analysis; format: cell-based
Caco-2 [19] = experiment: Induction of apoptosis in human Caco2 cells assessed as viable cells at 1 uM after 16 hrs by Annexin V-FITC/propidium iodide staining-based flow cytometric analysis (reference value: 98.4%); format: functional; conditions: Caco-2, 16 h, read-out: Activity
Caco-2 [20] = experiment: Induction of apoptosis in human Caco2 cells assessed as early apoptotic cells at 1 uM after 16 hrs by Annexin V-FITC/propidium iodide staining-based flow cytometric analysis (reference value: 1.40%); format: functional
Caco-2 [21] = experiment: Induction of apoptosis in human Caco2 cells assessed as late apoptotic cells at 1 uM after 16 hrs by Annexin V-FITC/propidium iodide staining-based flow cytometric analysis (reference value: 0.072%); format: functional
Caco-2 [22] = experiment: Induction of apoptosis in human Caco2 cells assessed as necrotic cells at 1 uM after 16 hrs by Annexin V-FITC/propidium iodide staining-based flow cytometric analysis (reference value: 0.12%); format: functional
Caco-2 [23] = experiment: Induction of apoptosis in human Caco2 cells assessed as viable cells at 5 uM after 16 hrs by Annexin V-FITC/propidium iodide staining-based flow cytometric analysis (reference value: 98.4%); format: functional; conditions: Caco-2, 16 h, read-out: Activity
Caco-2 [24] = experiment: Induction of apoptosis in human Caco2 cells assessed as early apoptotic cells at 5 uM after 16 hrs by Annexin V-FITC/propidium iodide staining-based flow cytometric analysis (reference value: 1.40%); format: functional
Caco-2 [25] = experiment: Induction of apoptosis in human Caco2 cells assessed as late apoptotic cells at 5 uM after 16 hrs by Annexin V-FITC/propidium iodide staining-based flow cytometric analysis (reference value: 0.072%); format: functional
Caco-2 [26] = experiment: Induction of apoptosis in human Caco2 cells assessed as necrotic cells at 5 uM after 16 hrs by Annexin V-FITC/propidium iodide staining-based flow cytometric analysis (reference value: 0.12%); format: functional
Caco-2 [27] = experiment: Induction of apoptosis in human Caco2 cells assessed as viable cells at 10 uM after 16 hrs by Annexin V-FITC/propidium iodide staining-based flow cytometric analysis (reference value: 98.4%); format: functional; conditions: Caco-2, 16 h, read-out: Activity
Caco-2 [28] = experiment: Induction of apoptosis in human Caco2 cells assessed as early apoptotic cells at 10 uM after 16 hrs by Annexin V-FITC/propidium iodide staining-based flow cytometric analysis (reference value: 1.40%); format: functional
Caco-2 [29] = experiment: Induction of apoptosis in human Caco2 cells assessed as late apoptotic cells at 10 uM after 16 hrs by Annexin V-FITC/propidium iodide staining-based flow cytometric analysis (reference value: 0.072%); format: functional
Caco-2 [30] = experiment: Induction of apoptosis in human Caco2 cells assessed as necrotic cells at 10 uM after 16 hrs by Annexin V-FITC/propidium iodide staining-based flow cytometric analysis (reference value: 0.12%); format: functional
Caco-2 [31] = experiment: Cytotoxicity against human Caco2 cells after 72 hrs by MTT assay; format: functional, cell-based; conditions: Caco-2, 72 h
Caco-2 [32] = experiment: Cytotoxicity against NAE-knockdown human Caco2 cells after 72 hrs by MTT assay; format: cell-based; conditions: Caco-2, 72 h
[33] = target: T3, SUMO-activating enzyme (Homo sapiens); experiment: Inhibition of SAE-mediated Ubc9-SUMO conjugation in human Caco2 cells up to 10 uM preincubated for 10 mins followed by ATP and Mg2+ addition measured after 60 mins by Western blot analysis; format: cell-based
[34] = target: T4, Ubiquitin-like modifier-activating enzyme 1 (Homo sapiens); experiment: Inhibition of UAE1-mediated Ubc10-ubiquitin conjugation in human Caco2 cells up to 10 uM preincubated for 10 mins followed by ATP and Mg2+ addition measured after 60 mins by Western blot analysis; format: cell-based

COc1cc([C@@H]2c3cc4c(cc3[C@H](O)[C@H]3COC(=O)[C@H]23)OCO4)cc(OC)c1OC
inhibition [1]: Active

O=C1c2c(O)ccc(O)c2C(=O)c2c(NCCNCCO)ccc(NCCNCCO)c21 [MITOXANTRONE]
inhibition [2]: Active
inhibition [3]: Dose-dependent effect
EC50 (NEDD8 activating enzyme): 1300 nM
inhibition [4]: Dose-dependent effect
inhibition [5]: inactive
inhibition [6]: inactive
inhibition [7]: Active
inhibition [8]: inactive
inhibition [9]: Active
Activity (Caco-2 [10]): Active
inhibition [1]: Active
Activity [11]: 15%
inhibition [12]: Dose-dependent effect
inhibition [13]: Dose-dependent effect
inhibition [14]: Dose-dependent effect
inhibition [15]: Active
inhibition [16]: Active
inhibition [17]: Active
inhibition [18]: Active
viability at 1 µM (Caco-2 [19]): 36%
Activity (Caco-2 [20]): 42%
Activity (Caco-2 [21]): 19.4%
Activity (Caco-2 [22]): 2.49%
viability at 5 µM (Caco-2 [23]): 15.4%
Activity (Caco-2 [24]): 27.8%
Activity (Caco-2 [25]): 50.7%
Activity (Caco-2 [26]): 6.07%
viability at 10 µM (Caco-2 [27]): 3.34%
Activity (Caco-2 [28]): 0.91%
Activity (Caco-2 [29]): 22.1%
Activity (Caco-2 [30]): 73.6%
IC50 (Caco-2 [31]): 1400 nM
IC50 (Caco-2 [32]): > 10000 nM
inhibition [33]: inactive
inhibition [34]: inactive

NS(=O)(=O)OC[C@@H]1C[C@@H](n2ccc3c(N[C@H]4CCc5ccccc54)ncnc32)C[C@@H]1O [PEVONEDISTAT]
inhibition [3]: Dose-dependent effect
inhibition [7]: Active
viability at 10 µM (Caco-2 [27]): 46.6%
Activity (Caco-2 [28]): 32.8%
Activity (Caco-2 [29]): 14.3%
Activity (Caco-2 [30]): 6.27%
IC50 (Caco-2 [31]): 4400 nM
